Data published in US9718816B2, “1-phenoxy-3-(alkylamino)-propan-2-ol derivatives as CARM1 inhibitors and uses thereof” (Epizyme, Inc., priority 2013, dated 2017).

Biological target: T1, CARM1 (Homo sapiens, UniProt Q86X55)
T1 construct: Flag-CARM1-His; made in house; host or cells: HEK 293F cells infected with recombinant baculovirus (pFastBacMam)
T1 sequence (Q86X55 1-585 isoform Q86X55-1): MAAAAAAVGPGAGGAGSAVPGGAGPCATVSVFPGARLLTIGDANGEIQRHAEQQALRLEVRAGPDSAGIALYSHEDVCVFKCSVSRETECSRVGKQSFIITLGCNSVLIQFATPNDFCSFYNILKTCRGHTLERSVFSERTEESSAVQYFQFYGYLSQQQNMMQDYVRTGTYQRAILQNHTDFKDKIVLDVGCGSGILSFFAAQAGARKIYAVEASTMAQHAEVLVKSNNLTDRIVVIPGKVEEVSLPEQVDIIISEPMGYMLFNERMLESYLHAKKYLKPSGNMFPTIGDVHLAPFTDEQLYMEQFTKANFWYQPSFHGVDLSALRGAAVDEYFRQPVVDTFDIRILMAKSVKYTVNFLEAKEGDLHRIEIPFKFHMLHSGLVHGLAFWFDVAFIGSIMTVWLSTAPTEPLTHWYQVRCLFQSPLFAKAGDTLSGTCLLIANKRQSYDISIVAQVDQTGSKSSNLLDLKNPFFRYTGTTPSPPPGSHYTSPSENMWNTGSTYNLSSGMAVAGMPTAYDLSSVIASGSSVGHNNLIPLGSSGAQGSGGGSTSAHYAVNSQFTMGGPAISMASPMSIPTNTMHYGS
Assay: CARM1 enzyme assay on peptide substrate (3H-SAM Flashplate)
Assay type: biochemical
Details: CARM1 0.25 nM, 3H-SAM 30 nM, peptide 250 nM, 30 min preincubation; read-out: Biochem IC50
From the text: S-adenosylmethionine (SAM), S-adenosylhomocysteine (SAH), bicine, Tween20, dimethylsulfoxide (DMSO), bovine skin gelatin (BSG), sodium butyrate and Tris(2-carboxyethyl)phosphine hydrochloride solution (TCEP) were purchased from Sigma-Aldrich at the highest level of purity possible. ^3H-SAM was purchase from American Radiolabeled Chemicals with a specific activity of 80 Ci/mmol. 384-well streptavidin Flashplates were purchased from PerkinElmer.
Peptide representative of human histone H3 residues 16-30 was synthesized with an N-terminal linker-affinity tag motif and a C-terminal amide cap by 21^St Century Biochemicals. The peptide was purified by high-performance liquid chromatography (HPLC) to greater than 95% purity and confirmed by liquid chromatography mass spectrometry (LC-MS). The sequence was Biot-Ahx-[…]-amide and contained a monomethylated arginine at position 26 (SEQ ID NO.:1).
Human CARM1 (PRMT4) (NM_199141.1) transcript clone was amplified from an HEK 293 cDNA library, incorporating a flanking 5′ sequence encoding a FLAG tag ([…]) (SEQ ID NO.:2) fused directly to Ala 2 of CARM1 and 3′ sequence encoding a hexa His sequence ([…]) (SEQ ID NO.:3) fused directly to Ser 608. The gene sequence encoding isoform1 containing a deletion of amino acids 539-561 was amplified subsequently and subcloned into pFastBacMam (Viva Biotech). Protein Expression
Recombinant baculovirus were generated according to Bac-to-Bac kit instructions (Life Technologies). Protein over-expression was accomplished by infecting exponentially growing HEK 293F cell culture at 1.3×10^6 cell/ml with virus (MOI=10) in the presence of 8 mM sodium butyrate. Infections were carried out at 37° C. for 48 hours, harvested by centrifugation, and stored at −80° C. for purification.
Column was washed with 500 mM NaCl in buffer A and Flag-CARM1-His was eluted with 200 ug/ml FLAG peptide in buffer A. Pooled fractions were dialyzed in 20 mM Tris, 150 mM NaCl, 5% glycerol and 1 mM DTT, pH 7.8. The purity of recovered protein was 94.
General Procedure for CARM1 Enzyme Assays on Peptide Substrates
The assays were all performed in a buffer consisting of 20 mM Bicine (pH=7.6), 1 mM TCEP, 0.005% BSG, and 0.002% Tween 20, prepared on the day of use. Compounds in 100% DMSO (1 ul) were spotted into a polypropylene 384-well V-bottom plates (Greiner) using a Platemate Plus outfitted with a 384-channel head (Thermo Scientific). DMSO (1 ul) was added to Columns 11, 12, 23, 24, rows A-H for the maximum signal control and 1 ul of SAH, a known product and inhibitor of CARM1, was added to columns 11, 12, 23, 24, rows I-P for the minimum signal control. A cocktail (40 ul) containing the CARM1 enzyme was added by Multidrop Combi (Thermo-Fisher). The compounds were allowed to incubate with CARM1 for 30 min at room temperature, then a cocktail (10 ul) containing ^3H-SAM and peptide was added to initiate the reaction (final volume=51 ul). The final concentrations of the components were as follows: CARM1 was 0.25 nM, ^3H-SAM was 30 nM, peptide was 250 nM, SAH in the minimum signal control wells was 1 mM, and the DMSO concentration was 2%. The assays were stopped by the addition of non-radiolabeled SAM (10 ul) to a final concentration of 300 uM, which dilutes the ^3H-SAM to a level where its incorporation into the peptide substrate is no longer detectable. 50 ul of the reaction in the 384-well polypropylene plate was then transferred to a 384-well Flashplate and the biotinylated peptides were allowed to bind to the streptavidin surface for at least 1 hour before being washed once with 0.1% Tween20 in a Biotek ELx405 plate washer. The plates were then read in a PerkinElmer TopCount plate reader to measure the quantity of ^3H-labeled peptide bound to the Flashplate surface, measured as disintegrations per minute (dpm) or alternatively, referred to as counts per minute (cpm). […]

CC(C)n1ncc2c(NC3CCOCC3)cc(-c3cccc(OCC(O)CN)c3)nc21 (stereo not drawn) [Example 19-1]
IC50: 100 to 1000 nM

CNCC(O)COc1cccc(-c2cc(NCCCCCN)c3cnn(C(C)C)c3n2)c1 (stereo not drawn) [Example 32-1]
IC50: < 100 nM

CNCC(O)COc1cccc(-c2cc(NCCNC(=O)c3ccn(C)n3)c3cnn(C(C)C)c3n2)c1 (stereo not drawn) [Example 58-1]
IC50: 100 to 1000 nM

CNCC(O)COc1cccc(-c2cc(N[C@H]3CO[C@@H]4OCC[C@@H]43)c3cnn(C(C)C)c3n2)c1 (stereo partly drawn) [Example 47-1]
IC50: 100 to 1000 nM

CC(C)n1ncc2c(NC(=O)OCc3ccccc3)cc(-c3cccc(OCC(O)CN)c3)nc21 (stereo not drawn) [Example 51-1]
IC50: < 100 nM

CNCC(O)COc1cccc(-c2cc(NC(=O)NC3CCOCC3)c3cnn(C(C)C)c3n2)c1 (stereo not drawn) [Example 2-1]
IC50: < 100 nM

CNCC(O)COc1cccc(-c2cc(Nc3ccccn3)c3cnn(C(C)C)c3n2)c1 (stereo not drawn) [Example 24-1]
IC50: 100 to 1000 nM

CNCC(O)COc1cccc(-c2cc(NCCCCNC(=O)c3cccnc3)c3cnn(C(C)C)c3n2)c1 (stereo not drawn) [Example 61-1]
IC50: 100 to 1000 nM

CNCC(O)COc1cccc(-c2cc(NCCCNC(=O)c3ccn(C)n3)c3cnn(C(C)C)c3n2)c1 (stereo not drawn) [Example 60-1]
IC50: 100 to 1000 nM

CNCC(O)COc1cccc(-c2cc(NCCCCCNC(=O)c3ccn(C)n3)c3cnn(C(C)C)c3n2)c1 (stereo not drawn) [Example 64-1]
IC50: < 100 nM

CNCC(O)COc1cccc(-c2cc(NS(=O)(=O)N(C)C)c3cnn(C(C)C)c3n2)c1 (stereo not drawn) [Example 45-1]
IC50: < 100 nM

CNCC(O)COc1cccc(-c2cc(N3CCOCC3)c3cnn(C(C)C)c3n2)c1 (stereo not drawn) [Example 20-1]
IC50: < 100 nM

CNCC(O)COc1cccc(-c2cc(NCCCCN)c3cnn(C(C)C)c3n2)c1 (stereo not drawn) [Example 22-1]
IC50: < 100 nM

CC(C)n1ncc2c(NC(=O)N(C)C)cc(-c3cccc(OCC(O)CN)c3)nc21 (stereo not drawn) [Example 14-1]
IC50: 100 to 1000 nM

CC(C)n1ncc2c(NCc3cccc(O)c3)cc(-c3cccc(OCC(O)CN)c3)nc21 (stereo not drawn) [Example 35-1]
IC50: 100 to 1000 nM

CNCC(O)COc1cccc(-c2cc(NCc3cnn(C)c3C)c3cnn(C(C)C)c3n2)c1 (stereo not drawn) [Example 46-1]
IC50: < 100 nM

CC(C)n1ncc2c(N(C)C3CCOCC3)cc(-c3cccc(OCC(O)CN)c3)nc21 (stereo not drawn) [Example 28-1]
IC50: 100 to 1000 nM

CC(C)n1ncc2c(NCc3cnc4ccccn34)cc(-c3cccc(OCC(O)CN)c3)nc21 (stereo not drawn) [Example 50-1]
IC50: < 100 nM

CNCC(O)COc1cccc(-c2cc(NC(=O)OC)c3cnn(C(C)C)c3n2)c1 (stereo not drawn) [Example 16-1]
IC50: 100 to 1000 nM

CNCC(O)COc1cccc(-c2cc(NCC3CCOCC3)c3cnn(C(C)C)c3n2)c1 (stereo not drawn) [Example 41-1]
IC50: < 100 nM

CNCC(O)COc1cccc(-c2cc(N(C)C3CCOCC3)c3cnn(C(C)C)c3n2)c1 (stereo not drawn) [Example 40-1]
IC50: 100 to 1000 nM

CC(C)n1ncc2c(N[C@H]3CO[C@@H]4OCC[C@@H]43)cc(-c3cccc(OCC(O)CN)c3)nc21 (stereo partly drawn) [Example 38-1]
IC50: < 100 nM

CC(C)n1ncc2c(N3CCOCC3)cc(-c3cccc(OCC(O)CN)c3)nc21 (stereo not drawn) [Example 11-1]
IC50: 100 to 1000 nM

CNCC(O)COc1cccc(-c2cc(NC3CC3)c3cnn(C(C)C)c3n2)c1 (stereo not drawn) [Example 7-1]
IC50: 100 to 1000 nM

CNC(=O)Nc1cc(-c2cccc(OCC(O)CN)c2)nc2c1cnn2C(C)C (stereo not drawn) [Example 8-1]
IC50: 100 to 1000 nM

CNCC(O)COc1cccc(-c2cc(NCCCCCCNC(=O)c3ccn(C)n3)c3cnn(C(C)C)c3n2)c1 (stereo not drawn) [Example 66-1]
IC50: 100 to 1000 nM

CNCC(O)COc1cccc(-c2cc(NCCCCCCN)c3cnn(C(C)C)c3n2)c1 (stereo not drawn) [Example 43-1]
IC50: 100 to 1000 nM

CC(C)n1ncc2c(NC3CC3)cc(-c3cccc(OCC(O)CN)c3)nc21 (stereo not drawn) [Example 6-1]
IC50: 100 to 1000 nM

CNCC(O)COc1cccc(-c2cc(NCCCCCNC(=O)c3cccnc3)c3cnn(C(C)C)c3n2)c1 (stereo not drawn) [Example 63-1]
IC50: 100 to 1000 nM

CC(C)n1ncc2c(NCc3ccncc3)cc(-c3cccc(OCC(O)CN)c3)nc21 (stereo not drawn) [Example 26-1]
IC50: < 100 nM

CNCC(O)COc1cccc(-c2cc(NC(=O)NC)c3cnn(C(C)C)c3n2)c1 (stereo not drawn) [Example 13-1]
IC50: < 100 nM

COC(=O)CNc1cc(-c2cccc(OCC(O)CN)c2)nc2c1cnn2C(C)C (stereo not drawn) [Example 18-1]
IC50: 100 to 1000 nM

CC(C)n1ncc2c(NCc3cccnc3)cc(-c3cccc(OCC(O)CN)c3)nc21 (stereo not drawn) [Example 25-1]
IC50: 3000 to 10000 nM

CC(C)n1ncc2c(NC(=O)NC3CCOCC3)cc(-c3cccc(OCC(O)CN)c3)nc21 (stereo not drawn) [Example 49-1]
IC50: 100 to 1000 nM

CNCC(O)COc1cccc(-c2cc(N3CCC(C(=O)OC)CC3)c3cnn(C(C)C)c3n2)c1 (stereo not drawn) [Example 52-1]
IC50: < 100 nM

CC(C)n1ncc2c(N3CCOCC3)cc(-c3cccc(OCC(O)CN)c3)nc21 (stereo not drawn) [Example 3-1]
IC50: < 100 nM

COc1nc(C)cc(C)c1CNc1cc(-c2cccc(OCC(O)CN)c2)nc2c1cnn2C(C)C (stereo not drawn) [Example 55-1]
IC50: < 100 nM

CNCC(O)COc1cccc(-c2cc(NCc3nnn[nH]3)c3cnn(C(C)C)c3n2)c1 (stereo not drawn) [Example 27-1]
IC50: < 100 nM

CNCC(O)COc1cccc(-c2cc(NC(=O)OCc3ccccc3)c3cnn(C(C)C)c3n2)c1 (stereo not drawn) [Example 54-1]
IC50: 100 to 1000 nM

Cc1c(CNc2cc(-c3cccc(OCC(O)CN)c3)nc3c2cnn3C(C)C)cnn1C (stereo not drawn) [Example 37-1]
IC50: 3000 to 10000 nM

CNCC(O)COc1cccc(-c2cc(NCCN)c3cnn(C(C)C)c3n2)c1 (stereo not drawn) [Example 9-1]
IC50: 100 to 1000 nM

CC(C)n1ncc2c(NCC3CCOCC3)cc(-c3cccc(OCC(O)CN)c3)nc21 (stereo not drawn) [Example 30-1]
IC50: < 100 nM

CNCC(O)COc1cccc(-c2cc(N(C)c3ccccn3)c3cnn(C(C)C)c3n2)c1 (stereo not drawn) [Example 33-1]
IC50: 100 to 1000 nM

CNCC(O)COc1cccc(-c2cc(NCc3cnc4ccccn34)c3cnn(C(C)C)c3n2)c1 (stereo not drawn) [Example 53-1]
IC50: < 100 nM

COC(=O)Nc1cc(-c2cccc(OCC(O)CN)c2)nc2c1cnn2C(C)C (stereo not drawn) [Example 10-1]
IC50: 100 to 1000 nM

CNCC(O)COc1cccc(-c2cc(NCc3c(C)cc(C)nc3OC)c3cnn(C(C)C)c3n2)c1 (stereo not drawn) [Example 57-1]
IC50: 100 to 1000 nM

CNCC(O)COc1cccc(-c2cc(NC3CCOCC3)c3cnn(C(C)C)c3n2)c1 (stereo not drawn) [Example 29-1]
IC50: 3000 to 10000 nM

CC(C)n1ncc2c(N(C)CC3CCOCC3)cc(-c3cccc(OCC(O)CN)c3)nc21 (stereo not drawn) [Example 42-1]
IC50: < 100 nM

CNCC(O)COc1cccc(-c2cc(NCc3ccccn3)c3cnn(C(C)C)c3n2)c1 (stereo not drawn) [Example 34-1]
IC50: 100 to 1000 nM

CNCC(O)COc1cccc(-c2cc(NC)c3cnn(C(C)C)c3n2)c1 (stereo not drawn) [Example 5-1]
IC50: 100 to 1000 nM

CNCC(O)COc1cccc(-c2cc(N(C)CC3CCOCC3)c3cnn(C(C)C)c3n2)c1 (stereo not drawn) [Example 48-1]
IC50: < 100 nM
